This is an account of results in US20210047304A1, “Bromodomain Inhibitors” (AbbVie Inc., priority 2016, published 2021).

In the test the target is BRD4 (BDI_K57-E168) (Homo sapiens, UniProt O60885). Put plainly: TR-FRET bromodomain binding assay, BRD4 BDI. As to the method: A time-resolved fluorescence resonance energy transfer (TR-FRET) assay was used to determine the affinities of compounds of the Examples listed in Table 1 for each bromodomain of BRD4. […] An Alexa647-labeled BET-inhibitor was used as the fluorescent probe in the assay.
Compound dilution series were prepared in DMSO via an approximately 3-fold serial dilution. Compound dilutions were added directly into white, low-volume assay plates (Perkin Elmer Proxiplate 384 Plus #6008280) using a Labcyte Echo in conjunction with Labcyte Access and Thermo Multidrop CombinL robotics. Compounds were then suspended in eight microliters (μL) of assay buffer (20 mM Sodium Phosphate, pH 6.0, 50 mM NaCl, 1 mM Ethylenediaminetetraacetic acid disodium salt dihydrate, 0.01% Triton X-100, 1 mM DL-Dithiothreitol) containing His-tagged bromodomain, Europium-conjugated anti-His antibody (Invitrogen PV5596) and Alexa-647-conjugated probe.
After a one-hour equilibration at room temperature, TR-FRET ratios were determined using an Envision multilabel plate reader (Ex 340, Em 495/520).
TR-FRET data were normalized to the means of 24 no-compound controls (“high”) and 8 controls containing 1 μM un-labeled probe (“low”). Percent inhibition was plotted as a function of compound concentration and the data were fit with the 4 parameter logistic equation to obtain IC50s. Inhibition constants (Ki) were calculated from the IC50s, probe Kd and probe concentration.
Compound dilution series for Compounds A-E were prepared in DMSO via an approximately 3-fold serial dilution from 0.47 mM to 7.8 nM.
Compound dilutions were added directly into white, low-volume assay plates (Perkin Elmer Proxiplate 384 Plus #6008280) using a Labcyte Echo in conjunction with Labcyte Access and Thermo Multidrop CombinL robotics. Compounds were then suspended in eight microliters (μL) of assay buffer (20 mM Sodium Phosphate, pH 6.0, 50 mM NaCl, 1 mM Ethylenediaminetetraacetic acid disodium salt dihydrate, 0.01% Triton X-100, 1 mM DL-Dithiothreitol) containing His-tagged bromodomain, Europium-conjugated anti-His antibody (Invitrogen PV5596) and Alexa-647-conjugated probe.
TR-FRET data were normalized to the means of 24 no-compound controls (“high”) and 8 controls containing 1 μM un-labeled probe (“low”). Percent inhibition was plotted as a function of compound concentration and the data were fit with the 4 parameter logistic equation to obtain IC50s. Inhibition constants (Ki) were calculated from the IC50s, probe Kd and probe concentration. Typical Z′ values were between 0.65 and 0.75. The minimum significant ratio was determined to evaluate assay reproducibility (Eastwood et al., (2006) J Biomol Screen, 11: 253-261). The MSR was determined to be 2.03 for BDI and 1.93 for BDII, and a moving MSR (last six run MSR overtime) for both BDI and BDII was typically <3.

With `Cc1cc(F)cc(C)c1Oc1ccc(C(C)(C)O)cc1-c1cn(C)c(=O)cc1O[C@H]1CC[C@H](N2C(=O)CCC2=O)CC1` [Example 44, 1-[trans-4-({5-[2-(4-fluoro-2,6-dimethylphenoxy)-5-(2-hydroxypropan-2-yl)phenyl]-1-methyl-2-oxo-1,2-dihydropyridin-4-yl}oxy)cyclohexyl]pyrrolidine-2,5-dione], the Ki (as a rule, a dissociation constant, usually derived from enzyme kinetics or from competition with a known ligand) was 3.38 µM.

Regarding `Cc1cc(F)cc(C)c1Oc1ccc(C(C)(C)O)cc1-c1cn(C)c(=O)cc1O[C@H]1CC[C@H](N2C(=O)[C@H]3CCCN3C2=O)CC1` [Example 138, (7aR)-2-[trans-4-({5-[2-(4-fluoro-2,6-dimethylphenoxy)-5-(2-hydroxypropan-2-yl)phenyl]-1-methyl-2-oxo-1,2-dihydropyridin-4-yl}oxy)cyclohexyl]tetrahydro-1H-pyrrolo[1,2-c]imidazole-1,3(2H)-dione], affinity was put at a Ki of 12.8 µM. Against the preceding compound, the Ki is about 3.8-fold higher. `Cc1cc(F)cc(C)c1Oc1ccc(C(C)(C)O)cc1-c1cn(C)c(=O)cc1O[C@H]1CC[C@H](N2C(=O)[C@@H](C)N(C)C2=O)CC1` [Example 81, (5R)-3-[trans-4-({5-[2-(4-fluoro-2,6-dimethylphenoxy)-5-(2-hydroxypropan-2-yl)phenyl]-1-methyl-2-oxo-1,2-dihydropyridin-4-yl}oxy)cyclohexyl]-1,5-dimethylimidazolidine-2,4-dione] came in with a Ki of 6.74 µM.

Regarding `Cc1cc(F)cc(C)c1Oc1ccc(C(C)(C)O)cc1-c1cn(C)c(=O)cc1O[C@H]1CC[C@H](C(=O)N2CCCC2)CC1` [Example 62, 5-[2-(4-fluoro-2,6-dimethylphenoxy)-5-(2-hydroxypropan-2-yl)phenyl]-1-methyl-4-{[trans-4-(pyrrolidine-1-carbonyl)cyclohexyl]oxy}pyridin-2(1H)-one], the Ki was 8.37 µM. Turning to `CC(=O)N[C@H]1CC[C@H](Oc2cc(=O)n(C)cc2-c2cc(C(C)(C)O)ccc2Oc2c(C)cc(F)cc2C)CC1` [Example 3, N-[trans-4-({5-[2-(4-fluoro-2,6-dimethylphenoxy)-5-(2-hydroxypropan-2-yl)phenyl]-1-methyl-2-oxo-1,2-dihydropyridin-4-yl}oxy)cyclohexyl]acetamide], affinity was put at a Ki of 1.02 µM. This Ki lies about 8.2-fold lower than the previous one. Compound `Cc1cc(F)cc(C)c1Oc1ccc(C(C)(C)O)cc1-c1cn(C)c(=O)cc1O[C@H]1CC[C@H](N2C(=O)CC(C)(C)C2=O)CC1` [Example 90, 1-[trans-4-({5-[2-(4-fluoro-2,6-dimethylphenoxy)-5-(2-hydroxypropan-2-yl)phenyl]-1-methyl-2-oxo-1,2-dihydropyridin-4-yl}oxy)cyclohexyl]-3,3-dimethylpyrrolidine-2,5-dione] came in with a Ki of 11.5 µM. Compound `CCN1CC(=O)N([C@H]2CC[C@H](Oc3cc(=O)n(C)cc3-c3cc(C(C)(C)O)ccc3Oc3c(C)cc(F)cc3C)CC2)C1=O` [Example 127, 1-ethyl-3-[trans-4-({5-[2-(4-fluoro-2,6-dimethylphenoxy)-5-(2-hydroxypropan-2-yl)phenyl]-1-methyl-2-oxo-1,2-dihydropyridin-4-yl}oxy)cyclohexyl]imidazolidine-2,4-dione] gave a Ki of 8.85 µM. The Ki values of the last two compounds are within 1.5-fold of each other. For the compound `Cc1cc(F)cc(C)c1Oc1ccc(C(C)(C)O)cc1-c1cn(C)c(=O)cc1O[C@H]1CC[C@H](NC(=O)C23CCC(NC(=O)OC(C)(C)C)(C2)C3)CC1` (relative stereo) [Example 103, tert-butyl (4-{[trans-4-({5-[2-(4-fluoro-2,6-dimethylphenoxy)-5-(2-hydroxypropan-2-yl)phenyl]-1-methyl-2-oxo-1,2-dihydropyridin-4-yl}oxy)cyclohexyl]carbamoyl}bicyclo[2.1.1]hexan-1-yl)carbamate], the affinity corresponds to a Ki of 8.01 µM. The value for `Cc1cc(F)cc(C)c1Oc1ccc(C(C)(C)O)cc1-c1cn(C)c(=O)cc1O[C@H]1CC[C@H](N2C(=O)CNC2=O)CC1` [Example 125, 3-[trans-4-({5-[2-(4-fluoro-2,6-dimethylphenoxy)-5-(2-hydroxypropan-2-yl)phenyl]-1-methyl-2-oxo-1,2-dihydropyridin-4-yl}oxy)cyclohexyl]imidazolidine-2,4-dione] was over 13 µM; that for `Cc1cc(F)cc(C)c1Oc1ccc(C(C)(C)O)cc1-c1cn(C)c(=O)cc1O[C@H]1CC[C@H](N2C(=O)C3COCCN3C2=O)CC1` (relative stereo) [Example 126, 2-[trans-4-({5-[2-(4-fluoro-2,6-dimethylphenoxy)-5-(2-hydroxypropan-2-yl)phenyl]-1-methyl-2-oxo-1,2-dihydropyridin-4-yl}oxy)cyclohexyl]tetrahydro-1H-imidazo[5,1-c][1,4]oxazine-1,3(2H)-dione] was over 13 µM.

As for `CC(=O)NC[C@@H]1CC[C@H](Oc2cc(=O)n(C)cc2-c2cc(C(C)(C)O)ccc2Oc2c(C)cc(F)cc2C)[C@H]1C` [Example 22, N-{[(1R,2S,3S)-3-({5-[2-(4-fluoro-2,6-dimethylphenoxy)-5-(2-hydroxypropan-2-yl)phenyl]-1-methyl-2-oxo-1,2-dihydropyridin-4-yl}oxy)-2-methylcyclopentyl]methyl}acetamide], the inhibitory constant (Ki) is 2.87 µM. With `Cc1cc(F)cc(C)c1Oc1ccc(C(C)(C)O)cc1-c1cn(C)c(=O)cc1O[C@H]1C[C@@H](C(=O)O)C1` [Example 97, cis-3-({5-[2-(4-fluoro-2,6-dimethylphenoxy)-5-(2-hydroxypropan-2-yl)phenyl]-1-methyl-2-oxo-1,2-dihydropyridin-4-yl}oxy)cyclobutane-1-carboxylic acid], the affinity corresponds to a Ki of 9.53 µM. This Ki is about 3.3-fold higher than that of the compound before.

`CNC(=O)N[C@H]1CC[C@H](Oc2cc(=O)n(C)cc2-c2cc(C(C)(C)O)ccc2Oc2c(C)cc(F)cc2C)CC1` [Example 128, N-[trans-4-({5-[2-(4-fluoro-2,6-dimethylphenoxy)-5-(2-hydroxypropan-2-yl)phenyl]-1-methyl-2-oxo-1,2-dihydropyridin-4-yl}oxy)cyclohexyl]-N′-methylurea] yielded an inhibition constant (Ki) of 2.11 µM. This Ki is about 4.5-fold lower than that of the compound before. To `Cc1cc(F)cc(C)c1Oc1ccc(C(C)(C)O)cc1-c1cn(C)c(=O)cc1O[C@H]1CC[C@H](NC(=O)C2(C)CC2)CC1` [Example 51, N-[trans-4-({5-[2-(4-fluoro-2,6-dimethylphenoxy)-5-(2-hydroxypropan-2-yl)phenyl]-1-methyl-2-oxo-1,2-dihydropyridin-4-yl}oxy)cyclohexyl]-1-methylcyclopropane-1-carboxamide] belongs over 13 µM. `Cc1cc(F)cc(C)c1Oc1ccc(C(C)(C)O)cc1-c1cn(C)c(=O)cc1O[C@H]1CC[C@H](N2C(=O)CCCC2=O)CC1` [Example 80, 1-[trans-4-({5-[2-(4-fluoro-2,6-dimethylphenoxy)-5-(2-hydroxypropan-2-yl)phenyl]-1-methyl-2-oxo-1,2-dihydropyridin-4-yl}oxy)cyclohexyl]piperidine-2,6-dione]: the affinity, expressed as Ki, was 9.88 µM. That is a single-digit micromolar value. `COCCN1CC(=O)N([C@H]2CC[C@H](Oc3cc(=O)n(C)cc3-c3cc(C(C)(C)O)ccc3Oc3c(C)cc(F)cc3C)CC2)C1=O` [Example 135, 3-[trans-4-({5-[2-(4-fluoro-2,6-dimethylphenoxy)-5-(2-hydroxypropan-2-yl)phenyl]-1-methyl-2-oxo-1,2-dihydropyridin-4-yl}oxy)cyclohexyl]-1-(2-methoxyethyl)imidazolidine-2,4-dione]: the inhibition constant (Ki) was 3.68 µM.

`Cc1cc(F)cc(C)c1Oc1ccc(C(C)(C)O)cc1-c1cn(C)c(=O)cc1O[C@H]1CC[C@H](NC(=O)C2(C)COC2)CC1` [Example 73, N-[trans-4-({5-[2-(4-fluoro-2,6-dimethylphenoxy)-5-(2-hydroxypropan-2-yl)phenyl]-1-methyl-2-oxo-1,2-dihydropyridin-4-yl}oxy)cyclohexyl]-3-methyloxetane-3-carboxamide] had a Ki of 2.26 µM.

For `CCNC(=O)[C@H]1CC[C@H](Oc2cc(=O)n(C)cc2-c2cc(C(C)(C)O)ccc2Oc2c(C)cc(F)cc2C)CC1` [Example 63, trans-N-ethyl-4-({5-[2-(4-fluoro-2,6-dimethylphenoxy)-5-(2-hydroxypropan-2-yl)phenyl]-1-methyl-2-oxo-1,2-dihydropyridin-4-yl}oxy)cyclohexane-1-carboxamide], the affinity, expressed as Ki, was 5.96 µM. On to `CC(=O)N(C)[C@H]1CC[C@H](Oc2cc(=O)n(C)cc2-c2cc(C(C)(C)O)ccc2Oc2c(C)cc(F)cc2C)CC1` [Example 16, N-[trans-4-({5-[2-(4-fluoro-2,6-dimethylphenoxy)-5-(2-hydroxypropan-2-yl)phenyl]-1-methyl-2-oxo-1,2-dihydropyridin-4-yl}oxy)cyclohexyl]-N-methylacetamide], for which the affinity, expressed as Ki, was 2.83 µM.
